# Test results as given in US20240052582A1, “COMPOSTABLE TURF WITH DECOMPOSITION INHIBITOR” (Polytex Sportbelage Produktions-GmbH, priority 2017, published 2024).
# Assay: Amount of decomposition inhibitor necessary for a minimum life expectancy of compostable artificial or hybrid turf
# Conditions: inhibitor within backing
# Description: Due to the wide variety of use case scenarios, stadium architectures and climatic conditions, the amount of decomposition inhibitor that ensures a sufficient life expectancy without unduly delaying the decomposition process is preferably determined empirically.
compound,measurement,setting,value
"Oc1cc(Cl)ccc1Oc1ccc(Cl)cc1Cl [Triclosan, 5-chlor-2-(2,4-dichlorphenoxy)-phenol]",Amount of Decomposition inhibitor necessary for a life expectancy of the turf material of at least [. . .] 6 Month,life expectancy at least 6 Month,0.0005% by % by weight of backing
same,Amount of Decomposition inhibitor necessary for a life expectancy of the turf material of at least [. . .] 12 Month,life expectancy at least 12 Month,0.001% by % by weight of backing
